Source: ChEMBL document CHEMBL1629583, “Establishment of in vitro susceptibility testing methodologies and comparative activities of piperacillin in combination with the penem {beta}-lactamase inhibitor BLI-489” (2009)
In brackets after ≈: the same amount, converted by molar mass.

Experiments:
Assay type in all cases: functional
Burkholderia cepacia = test: Antimicrobial activity against Burkholderia cepacia clinical isolate after 18 to 22 hrs by broth microdilution method
[1] = system: Stenotrophomonas maltophilia; test: Antimicrobial activity against Stenotrophomonas maltophilia clinical isolate after 18 to 22 hrs by broth microdilution method
Pseudomonas aeruginosa = test: Antimicrobial activity against Pseudomonas aeruginosa clinical isolate after 18 to 22 hrs by broth microdilution method
Haemophilus influenzae [2] = test: Antimicrobial activity against beta-lactamase-producing Haemophilus influenzae clinical isolate after 18 to 22 hrs by broth microdilution method
Haemophilus influenzae [3] = test: Antimicrobial activity against beta-lactamase-negative Haemophilus influenzae clinical isolate after 18 to 22 hrs by broth microdilution method
[4] = system: Haemophilus parainfluenzae; test: Antimicrobial activity against Haemophilus parainfluenzae clinical isolate after 18 to 22 hrs by broth microdilution method
Moraxella catarrhalis = test: Antimicrobial activity against Moraxella catarrhalis clinical isolate after 18 to 22 hrs by broth microdilution method
Bacteroides fragilis = test: Antimicrobial activity against Bacteroides fragilis clinical isolate after 18 to 22 hrs by broth microdilution method
[5] = system: Bacteroides thetaiotaomicron; test: Antimicrobial activity against Bacteroides thetaiotaomicron clinical isolate after 18 to 22 hrs by broth microdilution method
Bacteroides uniformis = test: Antimicrobial activity against Bacteroides uniformis clinical isolate after 18 to 22 hrs by broth microdilution method
Clostridium perfringens = test: Antimicrobial activity against Clostridium perfringens clinical isolate after 18 to 22 hrs by broth microdilution method
[6] = system: Peptostreptococcus anaerobius; test: Antimicrobial activity against Peptostreptococcus anaerobius clinical isolate after 18 to 22 hrs by broth microdilution method
Parvimonas micra = test: Antimicrobial activity against Peptostreptococcus micros clinical isolate after 18 to 22 hrs by broth microdilution method
Citrobacter koseri = test: Antimicrobial activity against Citrobacter koseri clinical isolate after 18 to 22 hrs by broth microdilution method
Enterobacter cloacae [7] = test: Antimicrobial activity against Enterobacter cloacae clinical isolate after 18 to 22 hrs by broth microdilution method
Escherichia coli [8] = test: Antimicrobial activity against class A extended spectrum beta-lactamase- and class D OXA- producing Escherichia coli clinical isolate after 18 to 22 hrs by broth microdilution method
Escherichia coli [9] = test: Antimicrobial activity against class A extended spectrum beta-lactamase- producing Escherichia coli clinical isolate after 18 to 22 hrs by broth microdilution method
Escherichia coli [10] = test: Antimicrobial activity against AmpC beta-lactamase-producing Escherichia coli clinical isolate after 18 to 22 hrs by broth microdilution method
Citrobacter freundii [11] = test: Antimicrobial activity against AmpC beta-lactamase-producing Citrobacter freundii clinical isolate after 18 to 22 hrs by broth microdilution method
Klebsiella aerogenes [12] = test: Antimicrobial activity against AmpC beta-lactamase-producing Enterobacter aerogenes clinical isolate after 18 to 22 hrs by broth microdilution method
Enterobacter cloacae [13] = test: Antimicrobial activity against AmpC beta-lactamase-producing Enterobacter cloacae clinical isolate after 18 to 22 hrs by broth microdilution method
Serratia marcescens [14] = test: Antimicrobial activity against AmpC beta-lactamase-producing Serratia marcescens clinical isolate after 18 to 22 hrs by broth microdilution method
Klebsiella aerogenes [15] = test: Antimicrobial activity against Enterobacter aerogenes clinical isolate after 18 to 22 hrs by broth microdilution method
Citrobacter freundii [16] = test: Antimicrobial activity against Citrobacter freundii clinical isolate after 18 to 22 hrs by broth microdilution method
Klebsiella pneumoniae [17] = test: Antimicrobial activity against Klebsiella pneumoniae clinical isolate after 18 to 22 hrs by broth microdilution method
Klebsiella pneumoniae [18] = test: Antimicrobial activity against class A extended spectrum beta-lactamase- producing Klebsiella pneumoniae clinical isolate after 18 to 22 hrs by broth microdilution method
Klebsiella pneumoniae [19] = test: Antimicrobial activity against class A extended spectrum beta-lactamase- and class D OXA- producing Klebsiella pneumoniae clinical isolate after 18 to 22 hrs by broth microdilution method
Klebsiella pneumoniae [20] = test: Antimicrobial activity against AmpC- producing Klebsiella pneumoniae clinical isolate after 18 to 22 hrs by broth microdilution method
Klebsiella oxytoca = test: Antimicrobial activity against Klebsiella oxytoca clinical isolate after 18 to 22 hrs by broth microdilution method
Serratia marcescens [21] = test: Antimicrobial activity against Serratia marcescens clinical isolate after 18 to 22 hrs by broth microdilution method
Morganella morganii = test: Antimicrobial activity against Morganella morganii clinical isolate after 18 to 22 hrs by broth microdilution method
Proteus mirabilis = test: Antimicrobial activity against Proteus mirabilis clinical isolate after 18 to 22 hrs by broth microdilution method
Proteus vulgaris = test: Antimicrobial activity against Proteus vulgaris clinical isolate after 18 to 22 hrs by broth microdilution method
Providencia rettgeri = test: Antimicrobial activity against Providencia rettgeri clinical isolate after 18 to 22 hrs by broth microdilution method
Providencia stuartii = test: Antimicrobial activity against Providencia stuartii clinical isolate after 18 to 22 hrs by broth microdilution method
[22] = system: Acinetobacter calcoaceticus; test: Antimicrobial activity against Acinetobacter calcoaceticus clinical isolate after 18 to 22 hrs by broth microdilution method
Acinetobacter baumannii = test: Antimicrobial activity against Acinetobacter baumannii clinical isolate after 18 to 22 hrs by broth microdilution method
[23] = system: Acinetobacter haemolyticus; test: Antimicrobial activity against Acinetobacter haemolyticus clinical isolate after 18 to 22 hrs by broth microdilution method
Acinetobacter johnsonii = test: Antimicrobial activity against Acinetobacter johnsonii clinical isolate after 18 to 22 hrs by broth microdilution method
Acinetobacter junii = test: Antimicrobial activity against Acinetobacter junii clinical isolate after 18 to 22 hrs by broth microdilution method
Acinetobacter lwoffii = test: Antimicrobial activity against Acinetobacter lwoffii clinical isolate after 18 to 22 hrs by broth microdilution method

## C[C@@H](O)[C@H]1C(=O)N2C(C(=O)O)=C(SCCNC=N)C[C@H]12 [IMIPENEM ANHYDROUS]
Burkholderia cepacia
  MIC50: 8 µg/mL (≈ 26.7 µM)
  MIC90: 16 µg/mL (≈ 53.4 µM)
[1]
  MIC: > 32 µg/mL
  MIC50: > 32 µg/mL
  MIC90: > 32 µg/mL
Pseudomonas aeruginosa
  MIC50: 2 µg/mL (≈ 6.68 µM)
  MIC90: 32 µg/mL (≈ 107 µM)
Haemophilus influenzae [2]
  MIC50: 0.5 µg/mL (≈ 1.67 µM)
  MIC90: 0.5 µg/mL (≈ 1.67 µM)
Haemophilus influenzae [3]
  MIC: 0.12 µg/mL (≈ 0.401 µM)
  MIC50: 0.05 µg/mL (≈ 0.167 µM)
  MIC90: 1 µg/mL (≈ 3.34 µM)
[4]
  MIC50: 0.25 µg/mL (≈ 0.835 µM)
  MIC90: 0.5 µg/mL (≈ 1.67 µM)
Moraxella catarrhalis
  MIC: ≤ 0.03 µg/mL
  MIC50: ≤ 0.03 µg/mL
  MIC90: 0.06 µg/mL (≈ 0.2 µM)
Bacteroides fragilis
  MIC50: 0.25 µg/mL (≈ 0.835 µM)
  MIC90: 0.5 µg/mL (≈ 1.67 µM)
[5]
  MIC: 0.25 µg/mL (≈ 0.835 µM)
  MIC50: 0.25 µg/mL (≈ 0.835 µM)
  MIC90: 1 µg/mL (≈ 3.34 µM)
Bacteroides uniformis
  MIC: 0.12 µg/mL (≈ 0.401 µM)
  MIC50: 0.12 µg/mL (≈ 0.401 µM)
  MIC90: 0.25 µg/mL (≈ 0.835 µM)
Clostridium perfringens
  MIC50: 0.06 µg/mL (≈ 0.2 µM)
  MIC90: 0.06 µg/mL (≈ 0.2 µM)
[6]
  MIC50: 0.03 µg/mL (≈ 0.1 µM)
  MIC90: 0.06 µg/mL (≈ 0.2 µM)
Parvimonas micra
  MIC50: 0.06 µg/mL (≈ 0.2 µM)
  MIC90: 0.12 µg/mL (≈ 0.401 µM)
Citrobacter koseri
  MIC50: 0.12 µg/mL (≈ 0.401 µM)
  MIC90: 0.12 µg/mL (≈ 0.401 µM)
Enterobacter cloacae [7]
  MIC50: 0.5 µg/mL (≈ 1.67 µM)
  MIC90: 1 µg/mL (≈ 3.34 µM)
Escherichia coli [8]
  MIC: 0.12 µg/mL (≈ 0.401 µM)
  MIC50: 0.12 µg/mL (≈ 0.401 µM)
  MIC90: 0.25 µg/mL (≈ 0.835 µM)
Escherichia coli [9]
  MIC: 0.12 µg/mL (≈ 0.401 µM)
  MIC50: 0.12 µg/mL (≈ 0.401 µM)
  MIC90: 0.5 µg/mL (≈ 1.67 µM)
Escherichia coli [10]
  MIC: 0.12 µg/mL (≈ 0.401 µM)
  MIC50: 0.12 µg/mL (≈ 0.401 µM)
  MIC90: 0.25 µg/mL (≈ 0.835 µM)
Citrobacter freundii [11]
  MIC: 0.5 µg/mL (≈ 1.67 µM)
  MIC50: 0.5 µg/mL (≈ 1.67 µM)
  MIC90: 2 µg/mL (≈ 6.68 µM)
Klebsiella aerogenes [12]
  MIC: 0.5 µg/mL (≈ 1.67 µM)
  MIC50: 0.5 µg/mL (≈ 1.67 µM)
  MIC90: 2 µg/mL (≈ 6.68 µM)
Enterobacter cloacae [13]
  MIC: 0.5 µg/mL (≈ 1.67 µM)
  MIC50: 0.5 µg/mL (≈ 1.67 µM)
  MIC90: 2 µg/mL (≈ 6.68 µM)
Serratia marcescens [14]
  MIC: 0.5 µg/mL (≈ 1.67 µM)
  MIC50: 0.5 µg/mL (≈ 1.67 µM)
  MIC90: 2 µg/mL (≈ 6.68 µM)
Klebsiella aerogenes [15]
  MIC50: 1 µg/mL (≈ 3.34 µM)
  MIC90: 2 µg/mL (≈ 6.68 µM)
Citrobacter freundii [16]
  MIC50: 1 µg/mL (≈ 3.34 µM)
  MIC90: 1 µg/mL (≈ 3.34 µM)
Klebsiella pneumoniae [17]
  MIC50: 0.25 µg/mL (≈ 0.835 µM)
  MIC90: 0.5 µg/mL (≈ 1.67 µM)
Klebsiella pneumoniae [18]
  MIC50: 0.25 µg/mL (≈ 0.835 µM)
  MIC90: 0.5 µg/mL (≈ 1.67 µM)
Klebsiella pneumoniae [19]
  MIC50: 0.25 µg/mL (≈ 0.835 µM)
  MIC90: 0.5 µg/mL (≈ 1.67 µM)
Klebsiella pneumoniae [20]
  MIC50: 1 µg/mL (≈ 3.34 µM)
  MIC90: 16 µg/mL (≈ 53.4 µM)
Klebsiella oxytoca
  MIC50: 0.25 µg/mL (≈ 0.835 µM)
  MIC90: 0.5 µg/mL (≈ 1.67 µM)
Serratia marcescens [21]
  MIC50: 1 µg/mL (≈ 3.34 µM)
  MIC90: 2 µg/mL (≈ 6.68 µM)
Morganella morganii
  MIC50: 4 µg/mL (≈ 13.4 µM)
  MIC90: 4 µg/mL (≈ 13.4 µM)
Proteus mirabilis
  MIC50: 2 µg/mL (≈ 6.68 µM)
  MIC90: 4 µg/mL (≈ 13.4 µM)
Proteus vulgaris
  MIC50: 2 µg/mL (≈ 6.68 µM)
  MIC90: 4 µg/mL (≈ 13.4 µM)
Providencia rettgeri
  MIC50: 2 µg/mL (≈ 6.68 µM)
  MIC90: 2 µg/mL (≈ 6.68 µM)
Providencia stuartii
  MIC50: 2 µg/mL (≈ 6.68 µM)
  MIC90: 2 µg/mL (≈ 6.68 µM)
[22]
  MIC50: 1 µg/mL (≈ 3.34 µM)
  MIC90: 32 µg/mL (≈ 107 µM)
Acinetobacter baumannii
  MIC50: 1 µg/mL (≈ 3.34 µM)
  MIC90: 32 µg/mL (≈ 107 µM)
[23]
  MIC50: 0.06 µg/mL (≈ 0.2 µM)
  MIC90: 0.5 µg/mL (≈ 1.67 µM)
Acinetobacter johnsonii
  MIC50: 0.06 µg/mL (≈ 0.2 µM)
  MIC90: 0.5 µg/mL (≈ 1.67 µM)
Acinetobacter junii
  MIC50: 0.06 µg/mL (≈ 0.2 µM)
  MIC90: 0.5 µg/mL (≈ 1.67 µM)
Acinetobacter lwoffii
  MIC50: 0.06 µg/mL (≈ 0.2 µM)
  MIC90: 0.5 µg/mL (≈ 1.67 µM)
